Measured values: PubChem BioAssay AID449762 (Southern Research Specialized Biocontainment Screening …, 2010)
Inconclusive results are not listed.

System: M. tuberculosis H37Rv growth inhibition, 7H9 media
Experiment: M. tuberculosis growth inhibition, HTS (AID 449762);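 note: bacterial growth assessed after seven days of incubation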
Conditions: for IC90: measured here: IC90 growth inhibition

SMILES | IC50 [µM] | IC90 [µM]
CC1CCCN(Cc2c(O)ccc3c(=O)c(-c4nc5ccccc5s4)c(N)oc23)C1 (stereo unspecified) | 9.7 | 12.7
Cc1nn(Cc2ccccc2Cl)c2sc(C(=O)NCCCn3ccnc3)cc12 | 37.5 | 49.5
CCc1cc(C(=O)Nc2ccc(C)cc2Br)cs1 | 30 | > 100
Nc1nc2ccccc2n1/N=C/c1ccc(Br)cc1 | 12.2 | > 25
CCN(CC)c1ccc(N)cc1 | 7.15 | 9.95
CNC(=S)Nc1ccc(N2CCN(c3ccc(C(F)(F)F)cn3)CC2)nc1 | 9.93 | > 100
Clc1ccc(NNc2ccnc3cc(Cl)ccc23)cc1 | 16.8 | 21.5
CCOC(=O)N1CCC(N2Cc3cccc(C(=O)Nc4ccc(N(CC)CC)cc4C)c3C2=O)CC1 | 45.1 | 50.5
COc1ccc(-c2c(C#N)c(SCC(=O)c3cc4ccccc4oc3=O)nc(C)c2C(=O)Nc2ccccc2)cc1 | 45.9 | 75.6
C/C(=N\NC(N)=S)c1ccc(Cl)s1 | 12 | 17.7
CCOc1ccc(-n2c(-c3ccc(Br)cc3)c[n+]3c2CCCCC3)cc1 | 69.7 | > 100
O=C(CSC1=Nc2ccccc2C2=NC(c3ccccc3)C(=O)N12)NC1CCCCC1 (stereo unspecified) | 0.66 | 1.29
O=C(NC(C(=O)N/N=C/c1cccc2ccccc12)c1n[nH]c(=O)c2ccccc12)c1ccccc1 (stereo unspecified) | 53.2 | > 100
C(=N\NC1=Nc2cccc3cccc1c23)/c1cccnc1 | 13.4 | > 100
COc1ccc(CCNc2nc(N3CCCCC3)nc(N3CCCCC3)n2)cc1OC | 17.3 | 22.5
CCOc1ccc(-c2cc(CCCC(=O)NCCC(C)C)no2)cc1 | 6.53 | 14.3
CN1C(=O)/C(=C/c2ccccc2Cl)Sc2ccc(C(=O)NCc3cccnc3)cc21 | 23.2 | 68.9
CCCCC(CC)CN=C(N)NC(N)=NCCCCCCN=C(N)NC(N)=NCC(CC)CCCC (stereo unspecified) | 3.61 | 4.76
O=C(Oc1ccccc1)c1ccccc1OS(=O)(=O)c1ccccc1 | 1.1 | 14.3
CCOC(=O)COc1cc(O)c2c(=O)cc(-c3ccccc3)oc2c1 | 0.68 | 2.33
O=C(c1ccccc1)c1nn(-c2ccc(Cl)cc2)c(=O)cc1C(F)(F)F | 12 | 19.6
CCN(Cc1ccncc1)Cc1nc(-c2ccc(C(=O)OC)cc2)no1 | 15.3 | 41.6

SMILES | IC50 [µM] | IC90 [µM]
C/C=C(\C)C(=O)Nc1cccc(C2=NOC3(C2)C[C@H](C(N)=O)N(C(=O)c2cc([N+](=O)[O-])cc([N+](=O)[O-])c2)C3)c1 (stereo partly specified) | 1.34 | 3.37
COC(=O)c1cc(-c2cccc(OC)c2)on1 | 0.37 | > 100
COC(=O)CSc1nnc(CNc2ccc(Cl)cc2)n1-c1ccccc1 | 12.7 | 37.4
CC(=NCc1ccc2c(c1)OCO2)C1=C(O)c2ccccc2C1=O | 1.09 | > 100
CCCCCCCC(=O)N/N=C(/C)c1c(O)cc(C)oc1=O | – | > 100
COc1ccc(C2=Nn3c(nnc3-c3ccccc3F)SC2)cc1OC1CCCC1 | 8.9 | 19.6
Cc1ccc(NC(=O)C2=C(O)CCn3c2nc2ccccc23)cc1 | 1.21 | 20.6
CCN(CC)c1nc(NN)nc(Nc2ccc(C)c(Cl)c2)n1 | 2.85 | 6.27
c1ccc(-c2ccccc2OCCCCn2ccnc2)cc1 | 12.8 | 25.6
CC(Oc1ccc(F)cc1)C(=O)Nc1sc2c(c1C(=O)NCc1cccnc1)CCCC2 (stereo unspecified) | 45 | 52.5
Cc1ccc(-c2cccc(NC(=O)C3C4C=CC(C4)C3C(=O)O)c2)o1 (stereo unspecified) | 74.2 | > 100
CCC[C@@H]1C[C@@H](C(=O)NC(C(C)Cl)[C@H]2O[C@H](SC)[C@H](O)[C@@H](O)[C@H]2O)N(C)C1 (stereo partly specified) | 1.53 | 5.1
CC1C/C(=C\c2cccnc2)C(=O)/C(=C/c2cccnc2)C1 (stereo unspecified) | 3.38 | 8.85
O=c1c(Cl)c2oc3ccccc3nc-2c2ccccc12 | 9.38 | 11.9
COc1cccc(/C=N/Nc2ncnc3scc(-c4ccccc4)c23)c1O | 1.57 | 3.35
C[n+]1c(-c2ccccc2)c2cc(N)ccc2c2ccc(N)cc21 | 7.95 | 10.2
CC1CCCC(NC(=O)NC(=O)CCl)C1C (stereo unspecified) | 3.25 | 7.38
CCCc1cc(-c2nc(N)ncc2-c2ccc3c(c2)OCCCO3)c(O)cc1OC | 48.6 | 54.9
COc1ccc(NC(C)C(=O)Nc2ccc(C(C)(C)C)cc2)cc1Cl (stereo unspecified) | 86.1 | > 100
O=C1c2cccc3c([N+](=O)[O-])ccc(c23)C(=O)N1O | 8.11 | 13.8
O=C(COC(=O)C1=COCCO1)Nc1cccc(Oc2ccccc2)c1 | 5.18 | 55.4
O=C(N/N=C\C=C\c1ccc([N+](=O)[O-])o1)c1cccs1 | 0.59 | 0.92

SMILES | IC50 [µM] | IC90 [µM]
CCN(CC)C(=O)c1cc([N+](=O)[O-])cc2c1-c1ccc([N+](=O)[O-])cc1C2=C(C#N)C#N | 21.3 | 23.8
COc1ccc(NC(=O)NC(C)C2CC3CCC2C3)cc1 (stereo unspecified) | 23.6 | 27.1
Cc1nc(NC(=O)CC(C)C)sc1-c1csc(Nc2ccc(Cl)cc2Cl)n1 | 46.3 | 52.5
CC(C)c1ccc2c(c1)CCC1C(C)(CN)CCCC21C (stereo unspecified) | 15.7 | 25.6
O=[N+]([O-])c1cccnc1N1CCC(c2cc(-c3cccc(C(F)(F)F)c3)n[nH]2)CC1 | 23.1 | 26.1
CNC(CC(=O)c1ccc([N+](=O)[O-])cc1)C(Cl)(Cl)Cl (stereo unspecified) | 2.26 | 5.81
O=C(c1cc2ccccc2o1)N1CCN(S(=O)(=O)c2ccc(Cl)s2)CC1 | 4.01 | 13.1
COc1ccccc1/C=C/C1=NC(=C\C=C/c2ccccc2)/C(=O)O1 | – | > 100
O=C(Nc1nc2ccc(F)cc2s1)C1CCN(S(=O)(=O)c2cc([N+](=O)[O-])ccc2Cl)CC1 | 10.9 | 16
C=CCOc1ccc(C2=NOC(C(=O)Nc3ccc4c(c3)OCCO4)C2)cc1 (stereo unspecified) | 12.8 | 23.1
Cc1ccc(NC(=O)COC(=O)C(NS(=O)(=O)c2ccc(Cl)cc2)C(C)O)cc1C (stereo unspecified) | 2.17 | 8.97
CCOC(=O)c1cc(-c2ccc(N3CCOCC3)cc2)nn1-c1ccccc1 | 13.4 | 45.2
COc1ccc2c(c1)[C@@H]1[C@H](CO2)[C@H](c2ccccc2)[C@]2(C)C(=O)Nc3ccc(C)cc3C(=O)N12 | 49.5 | > 100
CC(=O)OCC1O[C@@H](O[C@@H]2C[C@H]3C(C)(C)[C@H](OC(C)=O)CC[C@]3(C)[C@H]3CC[C@]45C[C@]4(CC[C@H]5[C@@H](C)C[C@@H](O)[C@H](O)C(C)(C)O)[C@@]32C)[C@H](O)[C@@H](O)[C@@H]1O (stereo partly specified) | 30.7 | 39.6
Cn1/c(=N/NC(=O)c2cccc(OC(F)F)c2)sc2ccccc21 | 2 | 22.7
S=C(NCCN1CCOCC1)N/N=C/c1cccs1 | 5.55 | 6.22
COc1cccc2c1C(=O)c1c(O)c3c(c(O)c1C2=O)C[C@@](O)(C(=O)CO)C[C@@H]3O[C@H]1C[C@H](N)[C@@H](O)[C@H](C)O1 | 2.64 | 4.86
Cn1c(=O)c(C(=O)NNC(=O)c2cccc(Cl)c2)c(O)c2ccccc21 | 0.8 | 1.28
CCCNC(=O)NC(=O)COc1ccc2oc3ccccc3c2c1 | – | > 100
Cc1cccc(NS(=O)(=O)c2ccc(C(=O)N3CCN(c4ccccc4O)CC3)cc2)c1C | 75.3 | > 100
N#CC(C#N)=c1ccc2c(c1)N1C3=C(CCCC3)CC3CCCCC31N=2 (stereo unspecified) | 11.5 | 13.1
O=C(CSc1nc2ccccc2nc1N1CCOCC1)N1CCN(c2ccccc2)CC1 | 11.4 | 13.2

SMILES | IC50 [µM] | IC90 [µM]
CC1CCN(C(=O)C2CCN(c3nnc(-n4cccc4)s3)CC2)CC1 | 2.96 | 3.37
CCCn1nnnc1NC(=O)c1ccc(C)cc1Cl | 7.89 | 19.4
Cc1[nH]n(-c2ccccc2)c(=S)c1C=NCCCN=Cc1c(C)[nH]n(-c2ccccc2)c1=S | – | > 100
C/C(=N\N=C(/N)SC1CC(=O)N(c2ccc(Cl)cc2)C1=O)c1cccs1 (stereo unspecified) | 33 | > 100
Cc1ccc(S(=O)(=O)Nc2cccc3ncccc23)s1 | < 0.2 | 3.93
O=C(c1cc2nc(-c3ccc(F)cc3)cc(C(F)(F)F)n2n1)N1CCCCC1c1cccnc1 (stereo unspecified) | 14 | 31.4
CCc1ccc2oc(-c3ccc(OC)cc3)cc(=Nc3c(C)n(C)n(-c4ccccc4)c3=O)c2c1 | 22.4 | 25.1
CCOC(=O)N1CCN=C1SCc1ccc(C(F)(F)F)cc1 | – | > 100
COc1ccc2nc(N=NC3=C(O)CC(C)(C)CC3=O)sc2c1 | 12.4 | 13.7
O=C1NCC(c2ccccc2)C1C(=O)N/N=C\c1ccc(-c2ccc(Cl)c(Cl)c2)o1 (stereo unspecified) | 91 | > 100
CCCc1ncc(CN2CCCC(C(=O)Nc3ccc(-c4cccc(OC)c4)cc3)C2)cn1 (stereo unspecified) | – | > 100
CCN1CCN(Cc2ccc(NC(=O)c3ccc(C)c(/C=C/c4cnc(Nc5cc(N6CCNCC6)nc(C)n5)cn4)c3)cc2C(F)(F)F)CC1 | 35.1 | 57.9
COc1ccccc1C1c2ccc3ccccc3c2Oc2ncn(CCN(C)C)c(=N)c21 (stereo unspecified) | 22.3 | 24.9
Cc1cccc(NC(=O)CCSc2nnc(Cc3ccccc3)o2)c1 | 17.1 | 49.3
COC(=O)C(CCSC)NC(=O)c1cn(-c2ccc(OC)cc2)c(=O)c2ccccc12 (stereo unspecified) | 12 | > 100
COc1cc(N=Nc2ccc3ccccc3c2)ccc1O | 37.8 | 63.1
CCOC(=O)Cn1c(-c2ccccc2)ccc(C#N)c1=O | 4.51 | > 100
CCCOC(=O)c1ccc(-c2ccc(C=O)o2)cc1 | 0.82 | > 100
Cc1ccc(Cn2c(C(CO)Nc3nc(-c4ccc(F)cc4)cs3)nc3ccccc32)cc1 (stereo unspecified) | 42.1 | 60.2
S=C(Nc1ccc(Cl)cc1)NC1CC2CCC(C1)N2Cc1ccccc1 (stereo unspecified) | 10.9 | 14.8
